Experimental data as given in patent US20240252493A1, “Apelin Receptor Modulators for Treating Age-Related Muscle Conditions” (BIOAGE LABS, INC., priority 2021, published 2024).
Entries after “also recorded” stand apart in the source; their conditions may differ.

What was measured:
[1] = test system: pAMPK; test: Western blot of pAMPK in heart after oral BGE-105; type: in vivo; details: mice, oral 45 mg/kg, vs vehicle
Excerpt: (§1) Administration of an apelin receptor agonist can induce the phosphorylation and activation of AMPK in heart tissue. Tissue samples were lysed using T-PER tissue protein extraction reagent (Thermo Fisher Scientific #78510) containing EDTA and protease/phosphatase inhibitors on the Omni Bead Ruptor 12 Homogenizer. Total protein was extracted then quantified using Pierce™ BCA Protein Assay Kit. Loaded equal amounts of total protein per lane on a 4-12% SDS-PAGE gel and transferred to PVDF membrane. Membranes were blocked and blotted with anti-phospho-AMPKα-Thr172 (Cell Signaling Technology, CST #2535), total-AMPKα (CST #2532), anti-phospho-Akt-SeR^473 (CST #4060), total-Akt (CST #4685), anti-phospho-ERK-1/2-Thr202/Tyr204 of Erk1 and Thr185/Tyr187 of Erk2 (CST #4370), total-ERK-1/2 (CST #9107) or anti-APLNR receptor (abcam, ab214369) antibodies. Band intensities were normalized to loading control anti-β-Actin (CST #3700) or anti-GAPDH (abcam, ab181602) antibodies. Immunoreactive proteins were detected using SuperSignal™ West Femto Substrate (Thermo Fisher Scientific #34095) and quantified by Image Lab™ software (Bio-Rad Laboratories, Inc.).
Apelin can induce the phosphorylation of Akt in the soleus muscle and improve glucose homeostasis. […]

[2] = test system: phosphorylation of Akt; test: Western blot of Akt phosphorylation in rat tibialis anterior; type: in vivo; details: rats
Excerpt: as §1
The difference between tissues was conserved among rodent species: In rats, as in mice, apelin receptor levels in rat tissue were 2-fold higher in heart than in soleus, FIGS. 5A-5B. […]

[3] = test system: Pax7, MyoD, MyoG, Myf5, MyHC3, and MyHC8; test: CTX-induced muscle injury: transcript levels of regeneration genes; type: in vivo, mice
Description: Impairment of muscle regeneration can contribute to age-related muscle weakness. This is particularly true in aged individuals who engage in physical activity. Exercise-induced muscle hypertrophy is linked to the capacity of muscle stem cells to be activated and promote regeneration. […] Mice were i.p injected with buprenorphine (Centravet, 0.1 mg/kg) 30 minutes before injury and the day after. The day of the injury, mice were anesthetized with isoflurane inhalation and hindlimbs were shaved. Then, 10 μM of cardiotoxin (CTX, Latoxan, #L8102) was injected through two injections of 25 μl into the left tibialis muscle and two injections of 50 μl into the left gastrocnemius muscle, using a 22-gauge needle (Hamilton). Mice were euthanized 3 and 7 days after injury by cervical dislocation, muscles (PBS- and CTX-injected) were cut in two parts, one being snap frozen into liquid nitrogen for total RNA extraction and the other part being embedded into OCT, frozen in isopentane cooled with liquid nitrogen for histological analysis.

[4] = test system: 25-HMC; test: Proliferation of immortalized human muscle cells, younger donor; type: cell-based; details: for cell proliferation (measured at day 4): younger subject cells
Description: (§2) Immortalized human cells from male donors (25-HMC) […] (79-HMC) are grown from the proliferation stage until they become 80% confluent, differentiate, and become myotubes. […] Early proliferation markers (Pax7, Myf5, MyoD, and MyoG were assessed via RT-PCR (FIG. 8D to 8K)

[5] = test system: 25-HMC; test: Early proliferation marker expression (RT-PCR), younger donor cells; type: cell-based, human
Description: as §2

[6] = test system: Twenty-month-old male C57/B16 mice; test: Disuse-induced muscle atrophy (hindlimb casting) in aged mice; type: in vivo
Excerpt: Limb immobilization causes a loss of gross skeletal muscle mass accompanied by a significant decrease in apelin transcript levels.
One week into the treatment, mice underwent modified hindlimb casting on one limb. Mice were anesthetized with isoflurane inhalation and the hindlimb wiped with povidone-iodine, then ethanol, and loosely wrapped in surgical gauze. A custom-made plastic immobilization device was placed on the limb, with the foot in full extension, so as to result in the maximal in vivo unloading of the plantarflexor group. The device was fixed to the hindlimb using Vetbond and the animal returned to its cage. After 3 weeks of treatment following casting, mice were euthanized 1 hour after the final ZT1 dose, and tissues isolated, weighed, then flash frozen in liquid nitrogen for subsequent western blot analysis.

[7] = test system: apelin receptor; test: Apelin receptor levels after one month of BGE-105 in immobilized aged mice; type: in vivo; details: after one month of treatment at 50 mg/kg BID
[8] = pH of BGE-105 dissolved in deionized water; type: physicochemical; details: 275 ug/mL in deionized water
Description: BGE-105 was administered in drinking water consumed ad libitum. The compound is mildly acidic when dissolved, resulting in a pH 4.5 solution. The deionized water was adjusted to pH 8.5 by adding 1N NaOH. The vehicle control group consumed water (ad libitum) of the same pH without drug.

[9] = test system: rats; details: cited from earlier work
[10] = gastrocnemius, aged mice, 3 or 7 days, apelin 0.5 μmol/kg/day, BGE-105 50 and 200 mg/kg/day
[11] = gastrocnemius, young mice, 3 or 7 days, apelin 0.5 μmol/kg/day, BGE-105 50 and 200 mg/kg/day
[12] = tibialis anterior, aged mice, 7 days, apelin 0.5 μmol/kg/day, BGE-105 50 and 200 mg/kg/day
[13] = tibialis, young mice, 3 or 7 days, apelin 0.5 μmol/kg/day, BGE-105 50 and 200 mg/kg/day
[14] = 20-month-old immobilized mice, 50 mg/kg BID, 50 mg/kg

COc1cccc(OC)c1-n1c(NS(=O)(=O)[C@@H](C)[C@H](C)c2ncc(C)cn2)nnc1-c1cncc(C)c1 [BGE-105, (2S,3R)—N-(4-(2,6-dimethoxyphenyl)-5-(5-methyl-3-pyridinyl)-4H-1,2,4-triazol-3-yl)-3-(5-methyl-2-pyrimidinyl)-2-butanesulfonamide]
pAMPK levels in the heart [1]: increased levels; also recorded: significantly higher | phosphorylation of Akt in TA ([2]; oral 50 mg/kg BID, 5 consecutive days): strongest response | phosphorylation of Akt in TA ([2]; oral dosing 5 consecutive days, across doses): dose-dependent manner | expression levels of genes involved in muscle regeneration (Pax7, MyoD, MyoG, Myf5, MyHC3, MyHC8) ([3]; aged (18-month-old) mice, tibialis, 7 days after CTX, vs PBS): significantly higher levels of several mRNA transcripts; also recorded: dramatically higher | effect on regeneration gene expression in gastrocnemius compared with tibialis ([3]; aged mice, gastrocnemius): not as prominent | Pax7 transcript levels ([3]; gastrocnemius, aged (18-month-old) mice, 3 or 7 days, apelin 0.5 μmol/kg/day, BGE-105 50 and 200 mg/kg/day): no significant change | MyoD transcript levels ([3]; gastrocnemius, aged mice, 3 and 7 days, apelin 0.5 μmol/kg/day, BGE-105 50 and 200 mg/kg/day): significant increase | Myf5 transcript levels [3, 10]: no significant change | MyoG transcript levels [3, 10]: no significant change | MyHC8 transcript levels ([3]; gastrocnemius, aged mice, any time point, any treatment): does not show a change | MyHC3 transcript levels ([3]; gastrocnemius, aged mice, only at 7 days, BGE-105 200 mg/kg/day): significant increase | Pax7 transcript levels ([3]; gastrocnemius, young (3-month-old) mice, 3 or 7 days, apelin 0.5 μmol/kg/day, BGE-105 50 and 200 mg/kg/day): no change | Myf5 transcript levels [3, 11]: no change | MyoD transcript levels [3, 11]: no change | MyoG transcript levels [3, 11]: no change | MyHC8 transcript levels ([3]; gastrocnemius, young mice, 3 days, apelin 0.5 μmol/kg/day, BGE-105 50 and 200 mg/kg/day): non-significant increase | MyHC3 transcript levels ([3]; gastrocnemius, young mice, only 3 days, BGE-105 50 mg/kg/day): increase | Pax7 transcript levels ([3]; tibialis anterior, aged (18-month-old) mice, 7 days post cardiotoxin, apelin 0.5 μmol/kg/day, BGE-105 50 and 200 mg/kg/day): significant increase | MyoD transcript levels ([3]; tibialis anterior, aged mice, 3 and 7 days post cardiotoxin, apelin 0.5 μmol/kg/day, BGE-105 50 and 200 mg/kg/day): significant increase | MyHC3 transcript levels [3, 12]: significant increase | Myf5 transcript levels [3, 12]: significant change | MyoG transcript levels [3, 12]: significant increase | Pax7 transcript levels ([3]; tibialis, young (3-month-old) mice, 3 or 7 days, apelin 0.5 μmol/kg/day, BGE-105 50 and 200 mg/kg/day): no change | MyHC3 transcript levels [3, 13]: no significant change | MyHC8 transcript levels [3, 13]: no significant change | Myf5 transcript levels [3, 13]: no difference | MyoD transcript levels [3, 13]: no significant increase | MyoG transcript levels [3, 13]: no difference | effect on regeneration gene expression in young mice ([3]; young (3-month-old) mice): not as effective | cell proliferation, short-term treatment ([4]; young donor cells, day 0 to day 4 post seeding): significant increase of cell proliferation | cell proliferation (measured at day 4) ([4]; 5 nM): increase | cell proliferation (measured at day 4) ([4]; 50 nM): significant increase in cell proliferation | expression of muscle cell differentiation markers Pax7 and MyoD ([5]; young donor cells): increased the expression | MyoD expression ([5]; younger cells, 5 nM): very significant increase | Myf5 expression ([5]; younger cells, 5 and 50 nM): equal to apelin treatment | Pax7 expression ([5]; younger cells, 5 and 50 nM): recapitulated the levels of apelin | MyoG expression (FIG. 8F) ([5]; younger cells, any amount of BGE-105, relative to control): no change | extensor digitorum longus (EDL) muscle weight / atrophy [6, 14]: did not measurably atrophy; also recorded: near significant improvement in muscle weight; also recorded: near significant decrease in the percent atrophy | gastrocnemius atrophy [6, 14]: less effective; also recorded: no improvement | soleus muscle weight / atrophy [6, 14]: modest rescue in atrophy; also recorded: near significant improvement in muscle weight; also recorded: marginal improvement in the percent atrophy | tibialis anterior muscle weight / percent atrophy vs vehicle [6, 14]: significant improvement in maintaining muscle weight; also recorded: significant decrease in the percent atrophy | decrease in wet weight of tibialis anterior (TA) muscle ([6]; casted limb, 50 mg/kg BID P.O., 21 days immobilization): 3% | muscle atrophy / loss of muscle mass induced by immobilization ([6]; immobilized aged mice, orally dosed, vs vehicle): significantly reduced muscle atrophy; also recorded: protected against some loss of muscle mass | apelin receptor levels [7]: noticeable but non-significant drop | pH of solution when dissolved [8]: 4.5 | cardiovascular response [9]: induces a cardiovascular response
